According to patent US20160115540A1, “PRODRUGS AND DRUGS” (Biogen MA Inc., priority 2013, published 2016):
Structures can show the parent of a compound that is named as a salt.

Tested on: spleen
Experiment: Transcriptional profiling, chronic dosing, EAE mice: spleen
Format: in vivo
Details: for Number of differentially expressed genes identified: Spleen: EAE, Chronic Dosing
Method: 2011 March 134(Pt3): 678-92. […] FIG. 17 depicts exemplary immunophenotyping panels used to analyze various immune cell populations (e.g., T cells, T regulatory cells, NK cells, B cells, myeloid cells). […] Animals were exposed to CO2 and whole blood collected via cardiac puncture. Two 100 μl aliquots of whole blood were collected in 1.5 mL microcentrifuge tubes and snap frozen in liquid nitrogen. Peripheral (liver, spleen, kidney and jejunum) and CNS brain (cerebellum, hippocampus, striatum and cortex) tissues were harvested and snap frozen in liquid nitrogen, with special care taken to collect tissues of similar size and from the same location. All samples were stored at -80° C. until RNA extraction was conducted. For RNA preparation, frozen tissues were placed in 2 mL RNAse-free 96-well blocks with 1.5 mL QIAzol Lysis Reagent (QIAgen) and a 3.2 mm stainless steel bead (BioSpec Products, Bartlesville, Okla.). Tissues were disrupted for four cycles of 45 seconds in a Mini-Beadbeater (Biospec Products). RNA was extracted in chloroform and the aqueous phase was mixed with an equal volume of 70% ethanol. Extracted RNA was applied to RNeasy 96 plates and purified by the spin method according to the manufacturer's protocol (RNeasy 96 Universal Tissue Protocol, QIAgen, Hilden Germany). […] Washing and staining of the hybridized arrays were completed as described in the GeneChip Expression analysis technical manual for HT plate arrays using the Genechip® Array Station (Affymetrix, Santa Clara, Calif.) with modifications as described in […] et al. The processed GeneChip® plate arrays were scanned using GeneTitan scanner (Affymetrix, Santa Clara, Calif.). Affymetrix scans were subject to quality control (QC) measures. These tests included a visual inspection of the distribution of raw signal intensities and an assessment of RNA degradation, relative log expression (RLE), and normalized unscaled standard error (NUSE). All sample scans that passed these QC metrics were included in the analysis. All CEL files were subjected to GC-content-based Robust Multi-array Average (GCRMA) normalization (version 2.20.0) (Irizarry R A, et al. Nucleic Acids Res 2003; 31:e15; Li C, et al. Genome Biol 2001; 2:[…]0032). […] Stat Appl Genet Mol Biol 2004; 3:Article3). […] Springer Science+Business Media 2005).

For `COC(=O)/C=C/C(=O)OC` [DMF, dimethyl fumarate], the “Number of differentially expressed genes identified: Spleen” value (“Number of differentially” below) (100 mpk DMF-vs-90 mpk MMF, 7 h after last dosing) was 3, the “Number of differentially” value (100 mpk DMF-vs-90 mpk MMF, 12 h after last dosing) was 4 and the “Number of differentially” value (100 mpk DMF-vs-Vehicle, 7 h after last dosing) was 12. The “Number of differentially” value (100 mpk DMF-vs-Vehicle, 12 h after last dosing) was 7, the “FC Ear1 (1421802_PM_at)” value (spleen, 100DMF-vs-90MMF, 7 h) was −3.57 and the “FC Epx (1449136_PM_at)” value (spleen, 100DMF-vs-90MMF, 7 h) was −3.20. For the same compound, the “FC Prg2 (1422873_PM_at)” value (spleen, 100DMF-vs-90MMF, 7 h) was −2.10, the “FC Angptl4 (1417130_PM_s_at)” value (spleen, 100DMF-vs-90MMF, 12 h) was 1.97 and the “FC Zbtb16 (1419874_PM_x_at)” value (spleen, 100DMF-vs-90MMF, 12 h) was 1.95. The “FC Zbtb16 (1442025_PM_a_at)” value (spleen, 100DMF-vs-90MMF, 12 h) was 2.29, the “FC Zbtb16 (1442026_PM_at)” value (spleen, 100DMF-vs-90MMF, 12 h) was 2.36 and the “FC 4930519L02Rik (1454269_PM_s_at)” value (spleen, 100DMF-vs-Veh, 7 h) was 1.66. The “FC Adamts4 (1455965_PM_at)” value (spleen, 100DMF-vs-Veh, 7 h) was −1.51, the “FC Aox1 (1419435_PM_at)” value (spleen, 100DMF-vs-Veh, 7 h) was 1.88 and the “FC Gsta3 (1423436_PM_at)” value (spleen, 100DMF-vs-Veh, 7 h) was 2.02. For the same compound, the “FC Gsta3 (1423437_PM_at)” value (spleen, 100DMF-vs-Veh, 7 h) was 1.94, the “FC LOC677317 /// Me1 1416632_PM_at” value (spleen, 100DMF-vs-Veh, 7 h) was 1.61 and the “FC Nqo1 (1423627_PM_at)” value (spleen, 100DMF-vs-Veh, 7 h) was 2.27. The “FC Pir (1429001_PM_at)” value (spleen, 100DMF-vs-Veh, 7 h) was 2.74, the “FC Srxn1 (1419942_PM_at)” value (spleen, 100DMF-vs-Veh, 7 h) was 2.31 and the “FC Srxn1 (1426875_PM_s_at)” value (spleen, 100DMF-vs-Veh, 7 h) was 2.29. For the same compound, the “FC Srxn1 (1451680_PM_at)” value (spleen, 100DMF-vs-Veh, 7 h) was 2.14, the “FC Steap4 (1425829_PM_a_at)” value (spleen, 100DMF-vs-Veh, 7 h) was −1.88 and the “FC Dbp (1418174_PM_at)” value (spleen, 100DMF-vs-Veh, 12 h) was −1.65. For the same compound, the “FC Dbp (1438211_PM_s_at)” value (spleen, 100DMF-vs-Veh, 12 h) was −1.78, the “FC Ighg (1424631_PM_a_at)” value (spleen, 100DMF-vs-Veh, 12 h) was −1.52 and the “FC Srxn1 (1419942_PM_at)” value (spleen, 100DMF-vs-Veh, 12 h) was 1.85. The “FC Srxn1 (1426875_PM_s_at)” value (spleen, 100DMF-vs-Veh, 12 h) was 1.90, the “FC Srxn1 (1451680_PM_at)” value (spleen, 100DMF-vs-Veh, 12 h) was 1.60 and the “Zbtb16 transcript signal, DMF-treated compared to MMF-treated animals” value (spleen, chronically dosed EAE mice, 12 h after final dosing) was “increased signal”.

`COC(=O)/C=C/C(=O)O` [MMF, monomethyl fumarate] was tested, and the “Number of differentially” value (90 mpk MMF-vs-Vehicle, 7 h after last dosing) was 23, the “Number of differentially” value (90 mpk MMF-vs-Vehicle, 12 h after last dosing) was 9 and the “FC 1441413_PM_at (no gene symbol)” value (spleen, 100MMF-vs-Veh, 7 h) was 1.54. For the same compound, the “FC 1451626_PM_x_at (no gene symbol)” value (spleen, 100MMF-vs-Veh, 7 h) was 1.55, the “FC 2810037O22Rik (1428866_PM_at)” value (spleen, 100MMF-vs-Veh, 7 h) was −1.88 and the “FC 4930519L02Rik (1454269_PM_s_at)” value (spleen, 100MMF-vs-Veh, 7 h) was 1.78. The “FC Aox1 (1419435_PM_at)” value (spleen, 100MMF-vs-Veh, 7 h) was 1.91, the “FC Cacnb3 (1448656_PM_at)” value (spleen, 100MMF-vs-Veh, 7 h) was −1.58 and the “FC Figf /// LOC100047108 (1438953_PM_at)” value (spleen, 100MMF-vs-Veh, 7 h) was 1.57. The “FC Gsta3 (1423436_PM_at)” value (spleen, 100MMF-vs-Veh, 7 h) was 1.74, the “FC Gsta3 (1423437_PM_at)” value (spleen, 100MMF-vs-Veh, 7 h) was 1.61 and the “FC Higd1c /// Mettl7a1 /// Mettl7a2 1434150_PM_a_at” value (spleen, 100MMF-vs-Veh, 7 h) was 1.57. The “FC Kcnh1 (1435994_PM_at)” value (spleen, 100MMF-vs-Veh, 7 h) was −1.60, the “FC Lmcd1 1424596_PM_s_at” value (spleen, 100MMF-vs-Veh, 7 h) was −1.74 and the “FC Mmp16 (1437568_PM_at)” value (spleen, 100MMF-vs-Veh, 7 h) was −1.56. The “FC Nqo1 (1423627_PM_at)” value (spleen, 100MMF-vs-Veh, 7 h) was 2.35, the “FC Pdk4 (1417273_PM_at)” value (spleen, 100MMF-vs-Veh, 7 h) was 1.68 and the “FC Pir (1429001_PM_at)” value (spleen, 100MMF-vs-Veh, 7 h) was 2.67. For the same compound, the “FC Socs3 (1416576_PM_at)” value (spleen, 100MMF-vs-Veh, 7 h) was −1.79, the “FC Srxn1 (1419942_PM_at)” value (spleen, 100MMF-vs-Veh, 7 h) was 2.29 and the “FC Srxn1 (1426875_PM_s_at)” value (spleen, 100MMF-vs-Veh, 7 h) was 2.26. For the same compound, the “FC Srxn1 (1451680_PM_at)” value (spleen, 100MMF-vs-Veh, 7 h) was 2.05, the “FC Steap4 (1425829_PM_a_at)” value (spleen, 100MMF-vs-Veh, 7 h) was −1.91 and the “FC Steap4 (1460197_PM_a_at)” value (spleen, 100MMF-vs-Veh, 7 h) was −2.48. For the same compound, the “FC Txnrd1 (1424486_PM_a_at)” value (spleen, 100MMF-vs-Veh, 7 h) was 1.69, the “FC 2810037O22Rik (1428866_PM_at)” value (spleen, 100MMF-vs-Veh, 12 h) was −1.55 and the “FC Dbp (1418174_PM_at)” value (spleen, 100MMF-vs-Veh, 12 h) was −1.85. The “FC Dbp (1438211_PM_s_at)” value (spleen, 100MMF-vs-Veh, 12 h) was −1.90, the “FC Dclre1a (1432097_PM_a_at)” value (spleen, 100MMF-vs-Veh, 12 h) was 1.56 and the “FC Nqo1 (1423627_PM_at)” value (spleen, 100MMF-vs-Veh, 12 h) was 2.05. For the same compound, the “FC Nr1d1 (1426464_PM_at)” value (spleen, 100MMF-vs-Veh, 12 h) was −1.76, the “FC Nr1d2 (1416958_PM_at)” value (spleen, 100MMF-vs-Veh, 12 h) was −1.53 and the “FC Srxn1 (1419942_PM_at)” value (spleen, 100MMF-vs-Veh, 12 h) was 1.73. For the same compound, the “FC Srxn1 (1426875_PM_s_at)” value (spleen, 100MMF-vs-Veh, 12 h) was 1.75.
